From ChEMBL document CHEMBL4261633, “Butenolides from a marine-derived fungus Aspergillus terreus with antitumor activities against pancreatic ductal adenocarcinoma cells” (Bioorg Med Chem, 2018)
Blank lines part the entries; values can stand above or below the molecule they belong to. The source made the active and inactive calls. No cut-off for these calls is given here.

Experiments:
HepG2 = assay: Antiproliferative activity against human HepG2 cells after 24 hrs by CCK8 assay; type: functional, cell-based; settings: HepG2, 24 h
PANC-1 [1] = assay: Antiproliferative activity against human PANC1 cells after 24 hrs by CCK8 assay; type: functional, cell-based; settings: PANC-1, 24 h
HCC1806 = assay: Antiproliferative activity against human HCC1806 cells after 24 hrs by CCK8 assay; type: functional, cell-based; settings: HCC1806, 24 h
HT-29 = assay: Antiproliferative activity against human HT-29 cells after 24 hrs by CCK8 assay; type: functional, cell-based; settings: HT-29, 24 h
BEAS-2B = assay: Antiproliferative activity against human BEAS2B cells after 24 hrs by CCK8 assay; type: functional, cell-based
PANC-1 [2] = assay: Cell cycle arrest in human PANC1 cells assessed as accumulation at S phase at 5 uM after 24 hrs by RNAase/propidium iodide staining-based flow cytometric analysis (reference value: 11.66 to 19.02%); type: functional
PANC-1 [3] = assay: Induction of apoptosis in human PANC1 cells assessed as viable cells at 15 uM after 24 hrs by FITC-Annexin V/propidium iodide staining-based flow cytometric analysis (reference value: 94.7 to 98.7%); type: functional; settings: PANC-1, 24 h, read-out: Activity
PANC-1 [4] = assay: Cell cycle arrest in human PANC1 cells assessed as accumulation at G2/M phase at 10 uM after 24 hrs by RNAase/propidium iodide staining-based flow cytometric analysis (reference value: 6.83 to 11.82%); type: functional
PANC-1 [5] = assay: Cell cycle arrest in human PANC1 cells assessed as accumulation at S phase at 10 uM after 24 hrs by RNAase/propidium iodide staining-based flow cytometric analysis (reference value: 11.66 to 19.02%); type: functional
PANC-1 [6] = assay: Cell cycle arrest in human PANC1 cells assessed as accumulation at G1 phase at 10 uM after 24 hrs by RNAase/propidium iodide staining-based flow cytometric analysis (reference value: 67.93 to 75.87%); type: functional
PANC-1 [7] = assay: Induction of apoptosis in human PANC1 cells assessed as late apoptotic cells at 10 uM after 24 hrs by FITC-Annexin V/propidium iodide staining-based flow cytometric analysis (reference value: 0.0 to 0.7%); type: functional
PANC-1 [8] = assay: Induction of apoptosis in human PANC1 cells assessed as necrotic cells at 10 uM after 24 hrs by FITC-Annexin V/propidium iodide staining-based flow cytometric analysis (reference value: 0.7 to 1.4%); type: functional
PANC-1 [9] = assay: Induction of apoptosis in human PANC1 cells assessed as necrotic cells at 5 uM after 24 hrs by FITC-Annexin V/propidium iodide staining-based flow cytometric analysis (reference value: 0.7 to 1.4%); type: functional
PANC-1 [10] = assay: Cell cycle arrest in human PANC1 cells assessed as accumulation at G1 phase at 5 uM after 24 hrs by RNAase/propidium iodide staining-based flow cytometric analysis (reference value: 67.93 to 75.87%); type: functional
PANC-1 [11] = assay: Induction of apoptosis in human PANC1 cells assessed as necrotic cells at 25 uM after 24 hrs by FITC-Annexin V/propidium iodide staining-based flow cytometric analysis (reference value: 0.7 to 1.4%); type: functional
PANC-1 [12] = assay: Induction of apoptosis in human PANC1 cells assessed as nuclear shrinkage at 5 uM after 24 hrs by Hoechst 33258 staining based fluorescence microscopic analysis; type: functional, cell-based
PANC-1 [13] = assay: Cell cycle arrest in human PANC1 cells assessed as accumulation at G2/M phase at 15 uM after 24 hrs by RNAase/propidium iodide staining-based flow cytometric analysis (reference value: 6.83 to 11.82%); type: functional
PANC-1 [14] = assay: Cell cycle arrest in human PANC1 cells assessed as accumulation at G1 phase at 15 uM after 24 hrs by RNAase/propidium iodide staining-based flow cytometric analysis (reference value: 67.93 to 75.87%); type: functional
PANC-1 [15] = assay: Induction of apoptosis in human PANC1 cells assessed as viable cells at 5 uM after 24 hrs by FITC-Annexin V/propidium iodide staining-based flow cytometric analysis (reference value: 94.7 to 98.7%); type: functional; settings: PANC-1, 24 h, read-out: Activity
PANC-1 [16] = assay: Induction of apoptosis in human PANC1 cells after 24 hrs by FITC-Annexin V/propidium iodide staining-based flow cytometric analysis; type: functional, cell-based
PANC-1 [17] = assay: Cell cycle arrest in human PANC1 cells assessed as accumulation at G2/M phase at 5 uM after 24 hrs by RNAase/propidium iodide staining-based flow cytometric analysis (reference value: 6.83 to 11.82%); type: functional
PANC-1 [18] = assay: Induction of apoptosis in human PANC1 cells assessed as necrotic cells at 15 uM after 24 hrs by FITC-Annexin V/propidium iodide staining-based flow cytometric analysis (reference value: 0.7 to 1.4%); type: functional
PANC-1 [19] = assay: Cell cycle arrest in human PANC1 cells assessed as accumulation at S phase at 15 uM after 24 hrs by RNAase/propidium iodide staining-based flow cytometric analysis (reference value: 11.66 to 19.02%); type: functional
PANC-1 [20] = assay: Cell cycle arrest in human PANC1 cells assessed as accumulation at S phase at 25 uM after 24 hrs by RNAase/propidium iodide staining-based flow cytometric analysis (reference value: 11.66 to 19.02%); type: functional
PANC-1 [21] = assay: Induction of apoptosis in human PANC1 cells assessed as late apoptotic cells at 25 uM after 24 hrs by FITC-Annexin V/propidium iodide staining-based flow cytometric analysis (reference value: 0.0 to 0.7%); type: functional
PANC-1 [22] = assay: Induction of apoptosis in human PANC1 cells assessed as late apoptotic cells at 5 uM after 24 hrs by FITC-Annexin V/propidium iodide staining-based flow cytometric analysis (reference value: 0.0 to 0.7%); type: functional
PANC-1 [23] = assay: Induction of apoptosis in human PANC1 cells assessed as early apoptotic cells at 10 uM after 24 hrs by FITC-Annexin V/propidium iodide staining-based flow cytometric analysis (reference value: 0.5 to 3.2%); type: functional
PANC-1 [24] = assay: Induction of apoptosis in human PANC1 cells assessed as early apoptotic cells at 25 uM after 24 hrs by FITC-Annexin V/propidium iodide staining-based flow cytometric analysis (reference value: 0.5 to 3.2%); type: functional
PANC-1 [25] = assay: Cell cycle arrest in human PANC1 cells assessed as accumulation at G2/M phase at 25 uM after 24 hrs by RNAase/propidium iodide staining-based flow cytometric analysis (reference value: 6.83 to 11.82%); type: functional
PANC-1 [26] = assay: Induction of apoptosis in human PANC1 cells assessed as early apoptotic cells at 15 uM after 24 hrs by FITC-Annexin V/propidium iodide staining-based flow cytometric analysis (reference value: 0.5 to 3.2%); type: functional
PANC-1 [27] = assay: Induction of apoptosis in human PANC1 cells assessed as nuclear chromatin condensation at 25 uM after 24 hrs by Hoechst 33258 staining based fluorescence microscopic analysis; type: functional, cell-based
PANC-1 [28] = assay: Cell cycle arrest in human PANC1 cells assessed as accumulation at G1 phase at 25 uM after 24 hrs by RNAase/propidium iodide staining-based flow cytometric analysis (reference value: 67.93 to 75.87%); type: functional
PANC-1 [29] = assay: Induction of apoptosis in human PANC1 cells assessed as viable cells at 25 uM after 24 hrs by FITC-Annexin V/propidium iodide staining-based flow cytometric analysis (reference value: 94.7 to 98.7%); type: functional; settings: PANC-1, 24 h, read-out: Activity
PANC-1 [30] = assay: Induction of apoptosis in human PANC1 cells assessed as late apoptotic cells at 15 uM after 24 hrs by FITC-Annexin V/propidium iodide staining-based flow cytometric analysis (reference value: 0.0 to 0.7%); type: functional
PANC-1 [31] = assay: Induction of apoptosis in human PANC1 cells assessed as viable cells at 10 uM after 24 hrs by FITC-Annexin V/propidium iodide staining-based flow cytometric analysis (reference value: 94.7 to 98.7%); type: functional; settings: PANC-1, 24 h, read-out: Activity
PANC-1 [32] = assay: Induction of apoptosis in human PANC1 cells assessed as early apoptotic cells at 5 uM after 24 hrs by FITC-Annexin V/propidium iodide staining-based flow cytometric analysis (reference value: 0.5 to 3.2%); type: functional
PANC-1 [33] = assay: Induction of apoptosis in human PANC1 cells assessed as nuclear shrinkage at 25 uM after 24 hrs by Hoechst 33258 staining based fluorescence microscopic analysis; type: functional, cell-based
PANC-1 [34] = assay: Induction of apoptosis in human PANC1 cells assessed as nuclear chromatin condensation at 5 uM after 24 hrs by Hoechst 33258 staining based fluorescence microscopic analysis; type: functional, cell-based
PANC-1 [35] = assay: Induction of apoptosis in human PANC1 cells assessed as nuclear fragmentation at 25 uM after 24 hrs by Hoechst 33258 staining based fluorescence microscopic analysis; type: functional, cell-based
PANC-1 [36] = assay: Induction of apoptosis in human PANC1 cells assessed as nuclear fragmentation at 5 uM after 24 hrs by Hoechst 33258 staining based fluorescence microscopic analysis; type: functional, cell-based

Compound: COC(=O)[C@]1(Cc2ccc3c(c2)CCC(C)(C)O3)OC(=O)C(O)=C1c1ccc(O)cc1
IC50 (HepG2): > 20 µM | IC50 (PANC-1 [1]): > 20 µM | IC50 (HCC1806): > 20 µM | IC50 (HT-29): > 20 µM | IC50 (BEAS-2B): > 20 µM

Compound: CC(C)(O)C1Cc2cc(C[C@H]3OC(=O)C(O)=C3c3ccc(O)cc3)ccc2O1 (some centres undefined)
IC50 (HepG2): > 20 µM | IC50 (PANC-1 [1]): > 20 µM | IC50 (HCC1806): > 20 µM | IC50 (HT-29): > 20 µM | IC50 (BEAS-2B): > 20 µM

Compound: COC(=O)[C@]1(Cc2ccc(O)c(CC=C(C)C)c2)OC(=O)C(O)=C1c1ccc(O)c(CC=C(C)C)c1
Activity (PANC-1 [2]): 35.11% | viability at 15 µM (PANC-1 [3]): 49.1% | Activity (PANC-1 [4]): 10.09% | Activity (PANC-1 [5]): 38.96% | IC50 (HepG2): 9 µM | Activity (PANC-1 [6]): 45.36% | Activity (PANC-1 [7]): 1.2% | Activity (PANC-1 [8]): 1.6% | Activity (PANC-1 [9]): 0.2% | Activity (PANC-1 [10]): 49.89% | IC50 (PANC-1 [1]): 5.3 µM | Activity (PANC-1 [11]): 1.3% | Activity (PANC-1 [12]): Active | Activity (PANC-1 [13]): 38.12% | Activity (PANC-1 [14]): 20.44% | viability at 5 µM (PANC-1 [15]): 94.7% | Activity (PANC-1 [16]): Dose-dependent effect | Activity (PANC-1 [17]): 14.43% | Activity (PANC-1 [18]): 1.6% | Activity (PANC-1 [19]): 38.47% | Activity (PANC-1 [20]): 41.26% | Activity (PANC-1 [21]): 11.6% | Activity (PANC-1 [22]): 0.3% | Activity (PANC-1 [23]): 9.3% | IC50 (HCC1806): 17.6 µM | IC50 (HT-29): > 20 µM | Activity (PANC-1 [24]): 42.7% | Activity (PANC-1 [25]): 35.78% | Activity (PANC-1 [26]): 48.5% | Activity (PANC-1 [27]): Active | Activity (PANC-1 [28]): 20.46% | IC50 (BEAS-2B): > 20 µM | viability at 25 µM (PANC-1 [29]): 44.5% | Activity (PANC-1 [30]): 0.7% | viability at 10 µM (PANC-1 [31]): 87.9% | Activity (PANC-1 [32]): 4.8% | Activity (PANC-1 [33]): Active | Activity (PANC-1 [34]): Active | Activity (PANC-1 [35]): Active | Activity (PANC-1 [36]): Active

Now from value to molecule, other results behind:

IC50 (HepG2): > 20 µM | IC50 (PANC-1 [1]): > 20 µM | IC50 (HCC1806): > 20 µM | IC50 (HT-29): > 20 µM
Compound: COC(=O)[C@]1(Cc2ccc3c(c2)CC(C(C)(C)O)O3)OC(=O)C(O)=C1c1ccccc1 (some centres undefined)
IC50 (BEAS-2B): > 20 µM

IC50 (HepG2): > 20 µM | IC50 (PANC-1 [1]): > 20 µM | IC50 (HCC1806): > 20 µM | IC50 (HT-29): > 20 µM
Compound: COC(=O)[C@]1(Cc2ccc3c(c2)CC(O)C(C)(C)O3)OC(=O)C(O)=C1c1ccccc1 (some centres undefined)
IC50 (BEAS-2B): > 20 µM

IC50 (HepG2): 0.009 µM | IC50 (PANC-1 [1]): 0.04 µM | IC50 (HCC1806): 0.001 µM
Compound: CC(=O)O[C@H]1C(=O)[C@@]2(C)[C@H]([C@H](OC(=O)c3ccccc3)[C@]3(O)C[C@H](OC(=O)[C@H](O)[C@@H](NC(=O)c4ccccc4)c4ccccc4)C(C)=C1C3(C)C)[C@]1(OC(C)=O)CO[C@@H]1C[C@@H]2O [PACLITAXEL]
IC50 (BEAS-2B): 0.007 µM
